According to paper PMC6978316, “Development of chimeric peptides to facilitate the neutralisation of lipopolysaccharides during bactericidal targeting of multidrug-resistant Escherichia coli” (Communications Biology, 2020):
Like-named read-outs stand apart in the source and are kept apart here. Where a SMILES comes first, the peptide text is derived from it. Bridges are numbered along the chain shown (N, C = ends). Where no end group is shown, it is not given here.

Legend:
trypsin = format: in vitro ADME
[1] = Biodistribution of FITC-labeled peptides (in vivo fluorescence imaging); conditions: nude mice, FITC-labeled peptide 5 mg per kg intraperitoneally
Description: The nude mice were intraperitoneally injected with 5 mg per kg FITC-labeled A6, G6, and N6, respectively. Free FITC was used as a negative control.

in vitro = conditions: mouse, serum, peptide remaining in serum, Mean, mice serum, 37 °C, RP-HPLC, mean of n = 3 (source data Fig. 2f)
Description: The thermal, pH and enzyme stability of A6 and G6 were evaluated against MDR E. coli CVCC195 using a previous method with minor revisions. The N6, A6, and G6 solutions were treated at different temperatures (20–100 °C) for 1 h, dissolved and incubated at different pH values (2–10) for 3 h, or incubated with trypsin or pepsin for 4 h. The inhibition zone diameters were measured after incubation at 37 °C for 18–24 h. The peptides were dissolved in H2O or mice serum at 37 °C to detect their serum stability and samples were removed at different time points to determine their residual activity by the inhibition zone or reverse-phase high-performance liquid chromatography (RP-HPLC) methods[62],[63].

pepsin = format: in vitro ADME
E. coli CVCC195 = format: cell-based, Escherichia coli; conditions: for Fold change in MIC: E. coli CVCC195
Description: Bacterial resistance against the peptides was assessed via the MIC assays. […] After 16–18 h of incubation at 37 °C, cells from the second highest concentration showing visible growth were used to inoculate the subsequent cultures. The MIC values for drug passage cultures were obtained as described above. This process was repeated for 30 d.

E. coli LPS = test: BODIPY-TR-cadaverine (BC) displacement assay; format: binding, Escherichia coli; design: BC displacement from LPS, Mean: unit not given here; conditions: for BC displacement from LPS, Mean: mean of n = 3
Description: The affinity of SCPs (A6, G6, and N6) to E. coli LPS was detected by the fluorescent BC probe. The binding of fluorescent probe with LPS can cause fluorescence quenching. When peptides bind to LPS, BC probe can be replaced, which can result in an increase in fluorescence. Equal volumes of LPS (40 μg per ml) and BC probe (10 μM) in 50 mM Tris buffer (pH 7.4) were mixed and added into a black 96-well microtiter plate (180 μl mixture per well), followed by the addition of different concentrations of A6, G6, or N6 (20 μl per well). Ampicillin and PMB were used as the negative and positive control, respectively. Changes in fluorescence were measured by a fluorescence spectrophotometry at room temperature (excitation: 580 nm, emission: 620 nm) and the BC displacement rate was calculated.

tested bacterial strains = test: MIC, range over all tested strains (peer review file); format: cell-based; conditions: manuscript lines quoted in the peer review file
Description: The MIC values of A6, G6, the parental peptides (N6 and LBP14), LBPN6, scramble controls (N6CK, A6CK, and G6CK), and PMB were determined by the microtiter broth dilution method. The tested strains included Gram-negative bacteria, Gram-positive bacteria, and fungi and were cultured to the logarithmic growth phase, diluted to 10^5 CFU per ml, and added into 96-well plates (90 μl per well). Peptides or antibiotic were diluted with PBS by 2-fold dilution and were added to each well (10 μl per well). Polymyxin B (PMB) and PBS were used as the positive and negative control, respectively. […] All experiments were repeated three times.

Question: What does the source list for `CC(C)[C@@H]1NC(=O)CNC(=O)[C@H](CC(N)=O)NC(=O)[C@H](CCCNC(=N)N)NC(=O)[C@H](Cc2ccc(O)cc2)NC(=O)[C@H](C(C)C)NC(=O)[C@@H](NC(=O)[C@@H](NC(=O)[C@H](CC(N)=O)NC(=O)[C@H](Cc2c[nH]c3ccccc23)NC(=O)[C@H](C)NC(=O)[C@H](Cc2ccccc2)NC(=O)CN)C(C)C)CSSC[C@@H](C(=O)N[C@@H](Cc2cnc[nH]2)C(=O)N[C@@H](CCCNC(=N)N)C(=O)N[C@@H](CCCNC(=N)N)C(=O)N[C@@H](C)C(=O)N[C@@H](CC(N)=O)C(=O)O)NC(=O)[C@H](C(C)C)NC(=O)[C@H](CCCNC(=N)N)NC1=O` [N6] (H-GFAWNVCVYRNGVRVCHRRAN-OH; disulfide 7-16)?
Answer: antibacterial activity after trypsin (inhibition zone diameter), Mean (trypsin): 0; time after injection at which the fluorescence disappeared / peptide was excreted [1]: 72 h; remaining at 1 h (in vitro; 1 h): 93%; remaining at 2 h (in vitro; 2 h): 87.5%; remaining at 4 h (in vitro; 4 h): 77.3%; antibacterial activity after pepsin (inhibition zone diameter), Mean (pepsin): 1.866; antibacterial activity without enzyme (inhibition zone diameter), Mean (pepsin): 2.004

Question: Which “Fold change in MIC” value (E. coli CVCC195; Day 1 of serial passage) does the source give for `CNC(C)C1CCC(N)C(OC2C(N)CC(N)C(OC3OCC(C)(O)C(NC)C3O)C2O)O1` (centres unmarked) [Gentamicin, gentamicin] here?
Answer: 1 fold

Question: What about the “Fold change in MIC” value (E. coli CVCC195; Day 2 of serial passage) of the same molecule?
Answer: 2 fold

Question: And the “Fold change in MIC” value (E. coli CVCC195; Day 3 of serial passage)?
Answer: 2 fold

Question: What about the “Fold change in MIC” value (E. coli CVCC195; Day 4 of serial passage) of the same molecule?
Answer: 1 fold

Question: And the “Fold change in MIC” value (E. coli CVCC195; Day 5 of serial passage)?
Answer: 2 fold

Question: What about the “Fold change in MIC” value (E. coli CVCC195; Day 6 of serial passage) of the same molecule?
Answer: 2 fold

Question: And the “Fold change in MIC” value (E. coli CVCC195; Day 7 of serial passage)?
Answer: 4 fold

Question: What about the “Fold change in MIC” value (E. coli CVCC195; Day 8 of serial passage) of the same molecule?
Answer: 4 fold

Question: And the “Fold change in MIC” value (E. coli CVCC195; Day 9 of serial passage)?
Answer: 4 fold

Question: And the “Fold change in MIC” value (E. coli CVCC195; Day 10 of serial passage)?
Answer: 8 fold

Question: What about the “Fold change in MIC” value (E. coli CVCC195; Day 11 of serial passage) of the same molecule?
Answer: 8 fold

Question: What about the “Fold change in MIC” value (E. coli CVCC195; Day 12 of serial passage) of the same molecule?
Answer: 8 fold

Question: What about the “Fold change in MIC” value (E. coli CVCC195; Day 13 of serial passage) of the same molecule?
Answer: 8 fold

Question: What about the “Fold change in MIC” value (E. coli CVCC195; Day 14 of serial passage) of the same molecule?
Answer: 16 fold

Question: What about the “Fold change in MIC” value (E. coli CVCC195; Day 15 of serial passage) of the same molecule?
Answer: 16 fold

Question: What about the “Fold change in MIC” value (E. coli CVCC195; Day 16 of serial passage) of the same molecule?
Answer: 16 fold

Question: And the “Fold change in MIC” value (E. coli CVCC195; Day 17 of serial passage)?
Answer: 16 fold

Question: And the “Fold change in MIC” value (E. coli CVCC195; Day 18 of serial passage)?
Answer: 16 fold

Question: What about the “Fold change in MIC” value (E. coli CVCC195; Day 19 of serial passage) of the same molecule?
Answer: 16 fold

Question: What about the “Fold change in MIC” value (E. coli CVCC195; Day 20 of serial passage) of the same molecule?
Answer: 16 fold

Question: What about the “Fold change in MIC” value (E. coli CVCC195; Day 21 of serial passage) of the same molecule?
Answer: 16 fold

Question: What about the “Fold change in MIC” value (E. coli CVCC195; Day 22 of serial passage) of the same molecule?
Answer: 16 fold

Question: And the “Fold change in MIC” value (E. coli CVCC195; Day 23 of serial passage)?
Answer: 16 fold

Question: And the “Fold change in MIC” value (E. coli CVCC195; Day 24 of serial passage)?
Answer: 16 fold

Question: What about the “Fold change in MIC” value (E. coli CVCC195; Day 25 of serial passage) of the same molecule?
Answer: 16 fold

Question: And the “Fold change in MIC” value (E. coli CVCC195; Day 26 of serial passage)?
Answer: 16 fold

Question: What about the “Fold change in MIC” value (E. coli CVCC195; Day 27 of serial passage) of the same molecule?
Answer: 16 fold

Question: And the “Fold change in MIC” value (E. coli CVCC195; Day 28 of serial passage)?
Answer: 16 fold

Question: And the “Fold change in MIC” value (E. coli CVCC195; Day 29 of serial passage)?
Answer: 16 fold

Question: And the “Fold change in MIC” value (E. coli CVCC195; Day 30 of serial passage)?
Answer: 16 fold

Question: What about the MIC elevation (E. coli CVCC195; at 7 d of serial passage) of the same molecule?
Answer: 3 fold

Question: What about the MIC elevation (E. coli CVCC195; at 15 d of serial passage) of the same molecule?
Answer: 15 fold

Question: Which “BC displacement from LPS, Mean” value (E. coli LPS; 0.05 μM, LPS 40 μg per ml + BC 10 μM, 50 mM Tris pH 7.4, ex 580/em 620 nm) does the source give for `CC1(C)S[C@@H]2[C@H](NC(=O)[C@H](N)c3ccccc3)C(=O)N2[C@H]1C(=O)O` [AMP, Ampicillin] here?
Answer: -0.1364

Question: And the “BC displacement from LPS, Mean” value (E. coli LPS; 0.1 μM)?
Answer: -0.2089

Question: And the “BC displacement from LPS, Mean” value (E. coli LPS; 0.5 μM)?
Answer: -1.734

Question: And the “BC displacement from LPS, Mean” value (E. coli LPS; 1 μM)?
Answer: -1.14

Question: What about the “BC displacement from LPS, Mean” value (E. coli LPS; 5 μM) of the same molecule?
Answer: -3.263

Question: And the “BC displacement from LPS, Mean” value (E. coli LPS; 10 μM)?
Answer: -3.845

Question: What about the “BC displacement from LPS, Mean” value (E. coli LPS; 50 μM) of the same molecule?
Answer: -4.033

Question: And the BC displacement ratio (E. coli LPS; 100 μM)?
Answer: did not displace BC probe

Question: And the “BC displacement from LPS, Mean” value (E. coli LPS; 100 μM)?
Answer: -4.227

Question: Which “MICs against the tested bacterial strains (range)” value (tested bacterial strains) does the source give for `CC(C)[C@H](N)C(=O)N[C@H]1CSSC[C@@H](C(=O)N[C@@H](Cc2c[nH]cn2)C(=O)N[C@@H](CCCNC(=N)N)C(=O)N[C@@H](CCCNC(=N)N)C(=O)N[C@@H](C)C(=O)N[C@@H](CC(N)=O)C(=O)N[C@@H](CC(N)=O)C(=O)NCC(=O)N[C@H](C(=O)N[C@@H](CCCNC(=N)N)C(=O)N[C@H](C(=O)O)C(C)C)C(C)C)NC(=O)[C@H](CC(N)=O)NC(=O)[C@H](Cc2c[nH]c3ccccc23)NC(=O)[C@H](C)NC(=O)[C@H](Cc2ccccc2)NC(=O)CNC(=O)[C@H](CCCNC(=N)N)NC(=O)[C@H](Cc2ccc(O)cc2)NC(=O)[C@H](C(C)C)NC1=O` [N6CK] (H-VCVYRGFAWNCHRRANNGVRV-OH; disulfide 2-11; N-terminus and C-terminus assumed) here?
Answer: hardly any activity

Question: With “RVQGRWKVRASFFKEAAAKEAAAKVCVYRGFAWNCHRRANNGVRV (disulfide 26-35) [A6CK]” as the molecule, how does the “MICs against the tested bacterial strains (range)” value (tested bacterial strains) read?
Answer: hardly any activity
